{
  "source": "patent US8283324B2",
  "about": "“Immunomodulatory and anti-tumour peptides” (Centro de Ingenieria Genetica y Biotecnologia, priority 2006, dated 2012)",
  "key": {"TC-1 tumor cells [1]": {"tested_on": "TC-1 tumor cells", "assay": "anti-tumoral effect in the TC-1 tumor model", "assay_type": "in vivo", "conditions": "4 mg per kg s.c.", "experimental": "Eight-to-ten weeks-old C57BI/6 female mice were used for this assay (n=10 animals per experimental group). For tumor graft, TC-1 tumor cells derived from C57BI/6 malignant epithelial lung cells were used, being resuspended in phosphate-buffered saline (PBS). An amount of 50,000 cells in a 200 μl volume was inoculated to mice by subcutaneous route in the right hind limb. The first peptide administration was carried out by subcutaneous route in the right flank once tumor reached a 100 mm^3 volume, and the second was carried out after 10 days. In this assay, a 4 mg per kg of weight dose was evaluated (80 μg/mice). Animal survival and tumor mass were the parameters evaluated to measure the anti-tumoral effect peptides of interest, as shown in FIGS. 4A and 4B. […] The Log Rank method was used as statistical analysis for detecting significant differences between groups."}, "TC-1 tumor cells [2]": {"tested_on": "TC-1 tumor cells", "assay": "prophylactic schedule of treatment in the TC-1 tumor model", "assay_type": "in vivo", "conditions": "4 mg/kg, two injections before inoculation of TC-1 cells", "experimental": "Eight-to-ten weeks-old C57BI/6 female mice were used for this assay (n=10 animals per experimental group). For tumor graft, TC-1 tumor cells, being resuspended in phosphate-buffered saline (PBS). Mice were first injected with the L-2 peptide (4 mg of peptide/kg of body weight). After 7 days, they received a second injection of the same dose; after 14 days of the first peptide injection, animals were inoculated with 50,000 cells in a 200 μl volume by subcutaneous route in the right hind limb. Parameters evaluated for measuring the anti-tumoral effect of the peptide included the time for tumor grafting (FIG. 6A) and the survival of animals (FIG. 6B)."}, "[3]": {"tested_on": "L929 murine fibroblast cells", "assay": "growth of cells, crystal violet, L929", "assay_type": "cell-based", "conditions": "9 μM to 300 μM, 72 h; FIG. 9", "experimental": "(§1) For this assay, TC-1, H-125 (non-small human ling cancer cells) and L929) murine fibroblast) cells were seeded in 96-well culture plates (Costar) at a 2×10^4 cells/ml in Dulbecco's modified Eagle's medium (DMEM)(Gibco) supplemented with Calf Fetal Serum (Gibco). After 24 h, the peptides were added to the culture in a range of 9 μM to 300 μM. […] Plates were extensively washed with tap water and plates were read at 562 nm. A pro-apoptotic peptide with a marked anti-proliferative effect in vitro was employed as positive control (Perea, S., et al (2004) Antitumor Effect of a Novel Proapoptotic Peptide that Impairs the Phosphorylation by the Protein Kinase 2 Cancer Research 64: 7127-7129)."}, "MB16-F10 tumor cells": {"tested_on": "MB16-F10 tumor cells", "assay": "anti-tumoral effect in a melanoma model", "assay_type": "in vivo, C57BI/6 female mice", "conditions": "4 mg per kg", "experimental": "Eight-to-ten weeks-old C57BI/6 female mice were used for this assay (n=10 animals per experimental group). For tumor graft, MB16-F10 tumor cells were used, being resuspended in phosphate-buffered saline (PBS). An amount of 15,000 cells were inoculated in a 200 μl volume by subcutaneous route in the right hind limb. After 4 days, the L-2 peptide was administered, with the second injection administered 7 after the first, and the third immunization was administered 14 days after. In this assay was evaluated a dose of 4 mg of peptide per kg of animal weight. Parameters evaluated to measure the anti-tumoral effect of the given peptide during this assay were the time of tumor grafting and the animal survival."}, "TC-1 cells": {"tested_on": "TC-1 cells", "assay": "growth of tumor cells, crystal violet, TC-1", "assay_type": "cell-based, C57BI/6", "conditions": "9 μM to 300 μM, 72 h; FIG. 9", "experimental": "as §1"}, "[4]": {"assay": "competition ELISA for LPS-binding capacity", "set-up": "species or system E. coli", "conditions": "competition with biotinylated LALF32-51 at 0.2 μM; analogous peptides 10 μM to 0.01 μM; FIG. 1A", "experimental": "This assay consists on a competition ELISA system (Hardy E., et al (1994) Enhanced ELISA sensitivity using TCA for efficient coating of biologically active LPS or Lipid A to the solid phase. J. Immunol. Meth. Vol. 176:111-116). Polystyrene plates (Costar, USA) were coated with LPS from E. coli 0111:B4 (1 μg/ml) with 0.2% trichloroacetic acid (TCA). Plates were incubated overnight at 37° C. and further washed ten times with 1× phosphate-buffered saline (1×PBS) plus 0.1% tween-20 (washing solution). The binding of analogous peptides to the LPS fixed to the solid surface was evaluated by a competition ELISA with the biotinylated LALF32-51 peptide at 0.2 μM, obtaining a 90% of maximum LPS binding. To estimate the inhibition curves, different concentrations of the analogous peptides were used, from 10 μM to 0.01 μM and the curve of the LALF32-51 peptide as experimental control. The biotinylated LALF32-51 was incubated in the presence of the analogous peptides for 2 h at 37° C. and plates were washed 5 times after that time with washing solution. The biotinylated LALF32-51 bound to LPS was detected by incubating for 45 min at 37° C. with a streptavidin-peroxidase conjugate at a 1:2,000 dilution. Plates were washed 5 times with washing solution and the substrate solution was added (0.05 M citrate-phosphate buffer, pH 5.5, 1 tablet of 3,3′,5,5′-tetramethylbenzidine and 0.025% hydrogen peroxide). After 15 min incubation, the reaction was stopped by adding 2 M sulphuric acid. The absorbance was quantified at 450 nm in a plate reader (Sensident Scan). There is a correlation between optical density values and the LPS-binding capacity of analogous peptides. Analogous peptides with higher LPS-binding capacity show inhibition curves of lower O.D. compared to the inhibition curve of the LALF32-51 peptide.\nAnalogous peptides with lower LPS-binding capacity present inhibition curves with […], compared to the inhibition curve of the LALF32-51 peptide.\nFIG. 1B represents the inhibition percentages of analogous peptides, at a fixed […] concentration, according to their capacity to displace the binding of the biotinylated LALF32-51 (0.2 μM) to LPS adsorbed to the solid surface. % de inhibición={1−(([O.D.]sample−[O.D.]min)/([O.D.]max−[O.D.]min))}×100 [O.D.] sample: Optical density value in the presence of a fixed concentration of analogous peptides; [O.D.] min: ELISA background; [O.D.] max: Optical density value without analogous peptides."}, "[5]": {"conditions": "at 100 mm^3 tumor volume and after 10 days, FIG. 4"}},
  "data": [
    {"sequence": "HARIKPTFRRLKWKYKGKFW [Peptide L-2, alanine-substituted analogue of LALF 32-51]", "values": [
      {"measurement": "survival of mice", "setting": "TC-1 tumor cells [1]; [5]", "value": "prolonging survival of mice"},
      {"measurement": "tumor progression (tumor mass)", "setting": "TC-1 tumor cells [1]; [5]", "value": "effective for inhibiting tumor progression"},
      {"measurement": "survival of animals compared to the LALF32-51 peptide", "setting": "TC-1 tumor cells [1]; Log Rank, *p<0.05", "value": "significantly increase the survival of animals"},
      {"measurement": "time for tumor grafting", "setting": "TC-1 tumor cells [2]; FIG. 6A", "value": "effective to prevent the development of the tumor"},
      {"measurement": "survival of animals", "setting": "TC-1 tumor cells [2]; FIG. 6B", "value": "increased the survival of the animals"},
      {"measurement": "anti-proliferative effect", "setting": "[3]", "value": "no effect was detected"},
      {"measurement": "time of tumor grafting", "setting": "MB16-F10 tumor cells; three administrations starting after 4 days, Log Rank *p<0.05, FIG. 5A", "value": "significantly delayed tumor grafting"},
      {"measurement": "animal survival", "setting": "MB16-F10 tumor cells; three administrations, Log Rank *p<0.05, FIG. 5B", "value": "significantly increased the survival of animals"},
      {"measurement": "animal survival compared to the LALF32-51 peptide", "setting": "MB16-F10 tumor cells; FIG. 5B", "value": "more effective than the LALF32-51 peptide"},
      {"measurement": "anti-proliferative effect", "setting": "TC-1 cells", "value": "dose-dependent anti-proliferative effect"},
      {"measurement": "LPS-binding capacity", "setting": "[4]", "value": "lose the capacity to bind LPS"}
    ]}
  ]
}
